Results reported in patent US8420591B2, “MUC1 and galectin-3” (Dana-Farber Cancer Institute, Inc., priority 2006, dated 2013).
pKd: −log10 of the molar value. Blank lines part the entries; values can stand above or below the compound they belong to. Where no end group is shown, it is not given here.

Experiments:
galectin-3 = target: T1, galectin-3 (Homo sapiens, UniProt P17931); assay: Surface plasmon resonance (BIAcore): binding of MUC1-C/ED to immobilized galectin-3; settings: galectin-3 immobilized on sensor chip, 25° C., 1:1 binding with a drifting base model, read-out: dissociation constant (KD) for binding to galectin-3
T1 construct: GST fusion proteins with full-length galectin-3 or certain deletion mutants were prepared; made in house; host or cells: E. coli
T1 sequence (P17931 whole entry P64H/T98P, the tested form may be a part): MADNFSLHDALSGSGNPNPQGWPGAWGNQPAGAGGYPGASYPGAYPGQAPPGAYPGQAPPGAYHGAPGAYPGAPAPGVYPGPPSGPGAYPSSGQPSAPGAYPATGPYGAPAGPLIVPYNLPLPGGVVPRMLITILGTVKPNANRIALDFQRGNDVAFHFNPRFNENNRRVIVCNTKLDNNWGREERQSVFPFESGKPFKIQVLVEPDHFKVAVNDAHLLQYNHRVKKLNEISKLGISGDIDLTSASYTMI
Method: (§1) Surface plasmon resonance analysis. Surface plasmon resonance measurements were determined using a BIACORE™ 3000 instrument at 25° C. Galectin-3 and galectin-3(63-250) were covalently coupled to CM5 Biacore™ sensor chips (500-1000 RU) at 30 μg/ml using the Biacore™ Amine Coupling kit. hFc-MUC1-C/ED and hFc diluted in running buffer (50 mM Tris-HCl, pH 7.4, 150 mM NaCl, 0.005% NP-40) were injected across galectin-3, galectin-3(63-250) or control flow cells at a rate of 30 μl/min. Regeneration of the sensor surface was performed with a 30-second pulse of 100 mM lactose. Association and dissociation kinetic constants were calculated by BIAevaluation™ software using 1:1 binding with a drifting base model.

galectin-3(63-250) = target: T2, galectin-3(63-250) (Homo sapiens, UniProt P17931, T98P); assay: Surface plasmon resonance (BIAcore): binding of MUC1-C/ED to immobilized galectin-3(63-250); settings: galectin-3(63-250) immobilized on sensor chip, 25° C., 1:1 binding with a drifting base model, read-out: dissociation constant (KD) for binding to galectin-3(63-250)
T2 construct: made in house; host or cells: E. coli
T2 sequence (P17931 with tags, fused parts or gaps T98P): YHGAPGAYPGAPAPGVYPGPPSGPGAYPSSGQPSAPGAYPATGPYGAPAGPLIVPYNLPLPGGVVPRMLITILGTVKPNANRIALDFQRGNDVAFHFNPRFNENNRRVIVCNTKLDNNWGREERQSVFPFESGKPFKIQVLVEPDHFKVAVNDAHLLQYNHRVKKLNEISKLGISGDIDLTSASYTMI
Method: as §1

[1] = target: T3, purified recombinant galectin-3 (Homo sapiens, UniProt P17931, P64H/T98P); assay: In vitro binding assay: hFc proteins incubated with purified galectin-3, protein G precipitation, anti-galectin-3 immunoblot; settings: 1 hour at 4° C.; protein G-Sepharose precipitation
T3 construct: GST fusion proteins with full-length galectin-3 or certain deletion mutants were prepared; made in house; host or cells: E. coli
T3 sequence (P17931 whole entry P64H/T98P, the tested form may be a part): as the sequence (P17931 whole entry P64H/T98P, the tested form may be a part) above
Method: (§2) In vitro binding assays. hFc and hFc-MUC1-C/ED were incubated with purified galectin-3 in lysis buffer for 1 hour at 4° C. The reaction products were precipitated with protein G-Sepharose™ and immunoblotted with anti-galectin-3. In other studies, hFc-MUC1-C/ED was incubated with GST-galectin-3 deletion mutants. The reaction products were precipitated with glutathione-sepharose 4B and immunoblotted with anti-MUC1-C/ED (Ren et al., 2004).

[2] = test system: MUC1 and EGFR interaction; assay: EGF-stimulated association of MUC1 and EGFR in ZR-75-1 cells (anti-MUC1-N precipitates immunoblotted); format: cell-based, human; settings: EGF for 5 min, co-immunoprecipitation
Method: (§3) Cell culture. Human breast cancer (ZR-75-1, BT549) and lung cancer (CRL-5985, CRL-5909) cells were grown in RPMI1640 medium supplemented with 10% fetal bovine serum (FBS), 100 units/ml penicillin and 100 μg/ml streptomycin. The human breast cancer ([…], MCF-7), prostate cancer (LnCAP, DU145, PC3), lung cancer (A549), kidney epithelial (293) and Chinese hamster ovary (CHO-K1) cells were cultured in Dulbecco's Modified Eagle's medium (DMEM) supplemented with 10% FBS, antibiotics and 1 mM L-glutamine. The glycosylation deficient CHO-Lec2 and CHO-Lec8 cells (ATCC, Manassas, Va.) were grown in alpha minimum essential medium containing 10% FBS and antibiotics. In certain studies, cells were cultured in medium with 0.1% FBS for 24 hours and then stimulated with 100 ng/ml epidermal growth factor (EGF) (Calbiochem-Novabiochem, La Jolla, Calif.) for 5 minutes at 37° C.
Immunoblotting and precipitates. Lysates were prepared from subconfluent cells as described (Li et al., 2001). Immunoblot analysis was performed with antibodies specific for MUC1-C (Ab5; Neomarkers, Fremont, Calif.), galectin-3 (Abcam, Cambridge, Mass.), β-actin (Sigma-Aldrich, St. Louis, Mo.), epidermal growth factor receptor (EGFR) (Santa Cruz Biotechnology, Santa Cruz, Calif.), and MUC1-N (DF3) (Ren et al., 2004). Immune complexes were prepared as described with antibodies specific for MUC1-C and MUC1-N (Li et al., 1998). […]

EGFR and MUC1 clustering = assay: Confocal microscopy of EGF-induced colocalization of EGFR and MUC1 in ZR-75-1 cells; format: cell-based, human; settings: EGF for 5 min
Method: as §3
Immunofluorescence microscopy. Cells were fixed in 3.7% formaldehyde, permeabilized in 0.2% Triton™ X-100 and post-fixed in 3.7% formaldehyde. The cells were blocked with 10% normal goat serum and stained with antibodies specific for MUC1-N (MAb DF3) and antibodies specific for EGFR (Santa Cruz Biotechnology, Santa Cruz, Calif.), followed by fluorescein-conjugated antibodies specific for rabbit IgG or Texas Red-conjugated antibodies specific for mouse IgG (Jackson ImmunoResearch Laboratories, West Grove, Pa.). […]

MUC1-C/ED = target: T4, MUC1-C/ED (Homo sapiens, UniProt P15941); assay: In vitro binding assay: hFc-MUC1-C/ED incubated with GST-galectin-3 deletion mutants, glutathione pull-down; settings: immunoblot anti-MUC1-C/ED
T4 construct: made in house; host or cells: CHO-K1
T4 sequence (P15941 1098-1155): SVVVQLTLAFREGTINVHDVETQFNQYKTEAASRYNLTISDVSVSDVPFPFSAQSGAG
Method: as §2

miR-322 [3] = assay: Galectin-3 mRNA stability assay after actinomycin D in transfected BT549/vector cells; format: cell-based, human; settings: BT549/vector cells transfected with oligo, then actinomycin D; quantitative RT-PCR
Method: mRNA stability assays. […] Total RNA was isolated and analyzed for galectin-3 and GAPDH mRNA levels by quantitative RT-PCT. The half life of galectin-3 mRNA was calculated using linear regression analysis. Antisense inhibition of miR-322. An antisense 2'-O-methyl oligoribonucleotide […] NO:20) against miR-322 and a scrambled 2'-O-methyl oligoribonucleotide […] NO:21) (Integrated DNA Technologies) were transfected into BT549 cells (50 pmol/10,000 cells) in the presence of LipofectamineTM 2000. At 72 hours after transfection, the cells were analyzed for galectin-3 expression.

miR-322 [4] = assay: Antisense inhibition of miR-322: galectin-3 expression in BT549/vector cells; format: cell-based, human; settings: 72 h after transfection
Method: Immunoblotting and precipitates. Lysates were prepared from subconfluent cells as described (Li et al., 2001). Immunoblot analysis was performed with antibodies specific for MUC1-C (Ab5; Neomarkers, Fremont, Calif.), galectin-3 (Abcam, Cambridge, Mass.), β-actin (Sigma-Aldrich, St. Louis, Mo.), epidermal growth factor receptor (EGFR) (Santa Cruz Biotechnology, Santa Cruz, Calif.), and MUC1-N (DF3) (Ren et al., 2004). Immune complexes were prepared as described with antibodies specific for MUC1-C and MUC1-N (Li et al., 1998). For GST “pull-down” assays, GST or GST-galectin-3 was incubated with cell lysates for 2 hours at 4° C. and precipitated with glutathione-Sepharose™ 4B. Precipitates were subjected to immunoblotting with anti-MUC1-C, anti-galectin-3 (Santa Cruz Biotechnology, Santa Cruz, Calif.), anti-MUC1-N (DF3) (Ren et al., 2004), anti-EGFR (Santa Cruz Biotechnology), or anti-β-actin.
Quantitative real-time PCR. […] Quantification of galectin-3 transcripts was performed with primer pairs […] […] Relative gene expression was determined using the comparative ddCT (threshold) method with GAPDH as the internal control.
Antisense inhibition of miR-322. […] At 72 hours after transfection, the cells were analyzed for galectin-3 expression.

- pKd (galectin-3): 7.95
- pKd (galectin-3(63-250)): 8.01
- binding of purified recombinant galectin-3 (immunoblot of adsorbates) [1]: binding of galectin-3 to hFc-MUC1-C/ED
Compound: hFc-MUC1-C/ED: MUC1-C extracellular domain (58 amino acids) fused to human Fc, secreted from CHO-K1 cells (SVVVQLTLAFREGTINVHDVETQFNQYKTEAASRYNLTISDVSVSDVPFPFSAQSGAG; not fully specified (N-terminus); also: fused to dimerising human Fc)

Compound: OC[C@H]1O[C@@](CO)(O[C@H]2O[C@H](CO)[C@@H](O)[C@H](O)[C@H]2O)[C@@H](O)[C@@H]1O [sucrose]
- EGF-stimulated binding of MUC1 and EGFR [2]: not sucrose
- EGF-induced colocalization of EGFR and MUC1 in clusters (EGFR and MUC1 clustering): not sucrose

- binding of MUC1-C/ED to GST-galectin-3 fusion proteins (pull-down) (MUC1-C/ED): pulled-down
Compound: GST-galectin-3: GST fusion protein with full-length galectin-3

- binding of MUC1-C/ED to GST-galectin-3 fusion proteins (pull-down) (MUC1-C/ED): no detectable binding
Compound: GST-galectin-3(1-138): GST fusion of galectin-3 deletion mutant 1-138 that includes the ND

- binding of MUC1-C/ED to GST-galectin-3 fusion proteins (pull-down) (MUC1-C/ED): no detectable binding
Compound: GST-galectin-3(1-62): GST fusion of galectin-3 deletion mutant 1-62 that includes the ND

Compound: anti-miR-322: antisense 2′-O-methyl oligoribonucleotide (GGUAUAGCAGCGCCUCACGUUUUG) (SEQ ID NO:20) against miR-322 (all 2'-O-methyl, backbone not given here)
- half-life of galectin-3 transcripts (miR-322 [3]): 19.5 h
- galectin-3 expression at the protein level (miR-322 [4]; immunoblotting): upregulates
- galectin-3 expression at the mRNA level (miR-322 [4]; quantitative RT-PCR): upregulates

Compound: scrambled oligo: scrambled 2′-O-methyl oligoribonucleotide (CACGGAUCUAGGUCGUAACGUAGG) (SEQ ID NO:21), control (all 2'-O-methyl, backbone not given here) [reference compound]
- half-life of galectin-3 transcripts (miR-322 [3]): 13.0 h

- binding of MUC1-C/ED to GST-galectin-3 fusion proteins (pull-down) (MUC1-C/ED): pulled-down
Compound: GST-galectin-3(63-250): GST fusion of galectin-3 amino acids 63-250 that contains the CRD

Compound: OC[C@H]1O[C@@H](O[C@H]2[C@H](O)[C@@H](O)C(O)O[C@@H]2CO)[C@H](O)[C@@H](O)[C@H]1O (stereo partly drawn) [lactose]
- EGF-stimulated binding of MUC1 and EGFR [2]: attenuated
- EGF-induced colocalization of EGFR and MUC1 in clusters (EGFR and MUC1 clustering): blocked
